Measured values from patent US10479784B2, “Substituted pyrazin-2-amines as inhibitors of ATR kinase” (Vertex Pharmaceuticals Incorporated, priority 2008, dated 2019).

These compounds were tested against full-length ATR (Homo sapiens (Human), UniProt Q13535) (assay: ATR Inhibition Assay (radioactive-phosphate incorporation)). Details: read-out: ATR Ki.
full-length ATR, sequence (Q13535 whole entry): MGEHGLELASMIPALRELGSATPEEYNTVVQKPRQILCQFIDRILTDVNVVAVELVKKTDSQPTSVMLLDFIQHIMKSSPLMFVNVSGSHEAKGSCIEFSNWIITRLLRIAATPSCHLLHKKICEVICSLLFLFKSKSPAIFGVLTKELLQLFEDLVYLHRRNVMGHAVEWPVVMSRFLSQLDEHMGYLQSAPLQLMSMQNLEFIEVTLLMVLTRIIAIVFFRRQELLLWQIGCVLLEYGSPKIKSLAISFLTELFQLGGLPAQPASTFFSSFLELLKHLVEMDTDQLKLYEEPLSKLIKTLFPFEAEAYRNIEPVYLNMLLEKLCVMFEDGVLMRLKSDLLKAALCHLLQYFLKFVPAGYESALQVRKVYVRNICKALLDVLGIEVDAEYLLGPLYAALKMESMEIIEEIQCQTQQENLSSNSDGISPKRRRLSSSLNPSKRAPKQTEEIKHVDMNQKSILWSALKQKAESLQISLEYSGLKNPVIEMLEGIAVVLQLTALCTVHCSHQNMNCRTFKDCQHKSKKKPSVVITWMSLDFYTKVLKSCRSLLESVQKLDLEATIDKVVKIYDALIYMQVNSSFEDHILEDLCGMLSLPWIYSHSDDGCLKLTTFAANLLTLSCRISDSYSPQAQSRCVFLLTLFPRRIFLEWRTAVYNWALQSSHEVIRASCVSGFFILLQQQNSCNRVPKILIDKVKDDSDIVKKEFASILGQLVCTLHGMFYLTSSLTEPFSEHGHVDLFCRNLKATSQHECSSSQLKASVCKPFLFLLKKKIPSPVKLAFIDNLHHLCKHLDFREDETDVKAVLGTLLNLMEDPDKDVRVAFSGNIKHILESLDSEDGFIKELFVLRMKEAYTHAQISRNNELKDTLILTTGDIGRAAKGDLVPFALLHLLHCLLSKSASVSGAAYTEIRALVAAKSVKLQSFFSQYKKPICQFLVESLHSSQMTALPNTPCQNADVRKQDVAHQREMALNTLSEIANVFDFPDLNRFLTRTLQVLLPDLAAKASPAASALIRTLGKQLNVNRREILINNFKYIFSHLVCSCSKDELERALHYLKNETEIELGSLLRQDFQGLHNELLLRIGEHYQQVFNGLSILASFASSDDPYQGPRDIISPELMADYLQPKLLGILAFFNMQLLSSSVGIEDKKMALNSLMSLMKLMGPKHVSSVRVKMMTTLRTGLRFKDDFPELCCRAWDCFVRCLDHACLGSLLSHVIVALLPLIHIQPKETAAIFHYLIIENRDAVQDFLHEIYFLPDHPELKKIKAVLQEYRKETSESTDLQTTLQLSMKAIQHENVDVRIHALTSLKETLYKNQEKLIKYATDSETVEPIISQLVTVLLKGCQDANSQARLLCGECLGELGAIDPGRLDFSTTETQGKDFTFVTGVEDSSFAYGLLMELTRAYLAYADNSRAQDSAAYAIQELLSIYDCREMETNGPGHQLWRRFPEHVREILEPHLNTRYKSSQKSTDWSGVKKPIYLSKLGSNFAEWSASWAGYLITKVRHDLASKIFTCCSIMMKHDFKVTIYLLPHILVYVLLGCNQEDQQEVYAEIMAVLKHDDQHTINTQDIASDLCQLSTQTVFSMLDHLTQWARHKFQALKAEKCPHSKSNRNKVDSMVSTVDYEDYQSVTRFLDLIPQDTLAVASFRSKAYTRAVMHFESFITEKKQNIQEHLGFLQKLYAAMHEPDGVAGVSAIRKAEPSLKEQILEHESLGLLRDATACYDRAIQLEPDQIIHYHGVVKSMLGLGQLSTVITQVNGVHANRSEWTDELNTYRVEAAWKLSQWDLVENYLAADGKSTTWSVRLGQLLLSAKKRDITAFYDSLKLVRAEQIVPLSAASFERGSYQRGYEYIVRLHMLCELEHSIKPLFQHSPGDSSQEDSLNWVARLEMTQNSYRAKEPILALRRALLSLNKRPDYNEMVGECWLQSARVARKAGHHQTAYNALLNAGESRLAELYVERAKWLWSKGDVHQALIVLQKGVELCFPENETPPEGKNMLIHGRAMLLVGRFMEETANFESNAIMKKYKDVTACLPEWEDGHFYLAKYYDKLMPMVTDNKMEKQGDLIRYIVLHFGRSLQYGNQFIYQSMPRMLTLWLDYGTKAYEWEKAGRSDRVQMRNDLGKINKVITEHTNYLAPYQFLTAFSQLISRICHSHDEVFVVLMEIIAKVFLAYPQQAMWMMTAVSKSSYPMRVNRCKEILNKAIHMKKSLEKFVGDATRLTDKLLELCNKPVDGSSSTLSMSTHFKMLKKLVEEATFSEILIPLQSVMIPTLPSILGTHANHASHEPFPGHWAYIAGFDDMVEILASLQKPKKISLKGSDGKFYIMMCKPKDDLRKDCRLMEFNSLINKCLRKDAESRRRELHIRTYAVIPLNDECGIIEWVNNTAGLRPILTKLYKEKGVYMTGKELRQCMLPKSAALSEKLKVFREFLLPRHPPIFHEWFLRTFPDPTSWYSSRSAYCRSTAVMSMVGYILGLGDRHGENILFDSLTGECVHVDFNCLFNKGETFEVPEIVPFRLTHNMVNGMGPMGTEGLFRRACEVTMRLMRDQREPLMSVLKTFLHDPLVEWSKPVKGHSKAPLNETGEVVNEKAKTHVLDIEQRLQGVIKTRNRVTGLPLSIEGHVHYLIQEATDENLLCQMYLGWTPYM
Type: biochemical
Method in brief: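 Full-length human ATR (5 nM) was assayed at 25 °C in 50 mM Tris/HCl pH 7.5, 10 mM MgCl2, 1 mM DTT, with 10 μM [γ-33P]ATP and 800 μM peptide, after 10-min compound preincubation. Reactions were stopped after 24 h, captured on phosphocellulose and counted; Ki(app) came from non-linear regression of initial rates.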
Work on `CCCCOC(=O)c1nnc(-c2nc(-c3ccc(S(=O)(=O)C(C)C)cc3)cnc2N)o1` [IA-113, butyl 5-[3-amino-6-(4-isopropylsulfonylphenyl)pyrazin-2-yl]-1,3,4-oxadiazole-2-carboxylate] yielded a Ki of 10 to 100 nM. In the case of `CC(C)S(=O)(=O)c1ccc(-c2cnc(N)c(-c3nnc(C(=O)NC4CCNC4)o3)n2)cc1` (stereo not shown) [IA-114, 5-[3-amino-6-(4-isopropylsulfonylphenyl)pyrazin-2-yl]-N-pyrrolidin-3-yl-1,3,4-oxadiazole-2-carboxamide], the Ki is reported as 100 to 5000 nM. Compound `CN(C)C(=O)c1ccc(-c2cnc(N)c(-c3nnc(-c4ccco4)o3)n2)cc1` [IA-115, 4-[5-amino-6-[5-(2-furyl)-1,3,4-oxadiazol-2-yl]pyrazin-2-yl]-N,N-dimethyl-benzamide] has a Ki of 10 to 100 nM. With `CC(C)S(=O)(=O)c1ccc(-c2cnc(N)c(-c3nnc(-c4ccccc4)o3)n2)cc1` [IA-116, 5-(4-isopropylsulfonylphenyl)-3-(5-phenyl-1,3,4-oxadiazol-2-yl)pyrazin-2-amine] the Ki was ≤ 10 nM. `COc1ccc(-c2cnc(N)c(-c3nnc(-c4ccccc4)o3)n2)cn1` [IA-117, 5-(6-methoxy-3-pyridyl)-3-(5-phenyl-1,3,4-oxadiazol-2-yl)pyrazin-2-amine] gave a Ki of 100 to 5000 nM. In the case of `CN(C)Cc1ccccc1-c1cnc(N)c(-c2nnc(-c3ccccc3)o2)n1` [IA-118, 5-(2-((dimethylamino)methyl)phenyl)-3-(5-phenyl-1,3,4-oxadiazol-2-yl)pyrazin-2-amine], the Ki is reported as 100 to 5000 nM. In the case of `COCCNCc1ccc(-c2nnc(-c3nc(-c4ccc(S(=O)(=O)C(C)C)cc4)cnc3N)o2)cc1` [IA-119, 5-(4-isopropylsulfonylphenyl)-3-[5-[4-[(2-methoxyethylamino)methyl]phenyl]-1,3,4-oxadiazol-2-yl]pyrazin-2-amine], the Ki is reported as ≤ 10 nM. `CC(C)S(=O)(=O)c1ccc(-c2cnc(N)c(-c3nnc(C(=O)N4CC(N)C4)o3)n2)cc1` [IA-120, (3-aminoazetidin-1-yl)-[5-[3-amino-6-(4-isopropylsulfonylphenyl)pyrazin-2-yl]-1,3,4-oxadiazol-2-yl]methanone] was tested, and the Ki was 10 to 100 nM. With `CC(C)S(=O)(=O)c1ccccc1-c1cnc(N)c(-c2nnc(-c3ccccc3)o2)n1` [IA-121, 5-(2-isopropylsulfonylphenyl)-3-(5-phenyl-1,3,4-oxadiazol-2-yl)pyrazin-2-amine] the Ki was 100 to 5000 nM. In the case of `CCNCc1ccc(-c2nnc(-c3nc(-c4ccc(S(=O)(=O)C(C)C)cc4)cnc3N)o2)cc1` [IA-122, 3-[5-[4-(ethylaminomethyl)phenyl]-1,3,4-oxadiazol-2-yl]-5-(4-isopropylsulfonylphenyl)pyrazin-2-amine], the Ki is reported as ≤ 10 nM. For `CC(C)S(=O)(=O)c1ccc(-c2cnc(N)c(-c3nnc(-c4cccc([C@H](C)N)c4)o3)n2)cc1` [IA-123, 3-[5-[3-[(1S)-1-aminoethyl]phenyl]-1,3,4-oxadiazol-2-yl]-5-(4-isopropylsulfonylphenyl)pyrazin-2-amine], the Ki was ≤ 10 nM. `CC(C)S(=O)(=O)c1ccc(-c2cnc(N)c(-c3nnc(-c4ccc([C@@H](C)N)cc4)o3)n2)cc1` [IA-124, 3-[5-[4-[(1R)-1-aminoethyl]phenyl]-1,3,4-oxadiazol-2-yl]-5-(4-isopropylsulfonylphenyl)pyrazin-2-amine] was tested, and the Ki was ≤ 10 nM. `COCc1ccccc1-c1cnc(N)c(-c2nnc(-c3ccccc3)o2)n1` [IA-125, 5-[2-(methoxymethyl)phenyl]-3-(5-phenyl-1,3,4-oxadiazol-2-yl)pyrazin-2-amine] was tested, and the Ki was 100 to 5000 nM. With `CN(C)C(=O)c1ccc(-c2cnc(N)c(-c3nnc(-c4ccccc4)o3)n2)c(C(F)F)c1` [IA-126, 4-[5-amino-6-(5-phenyl-1,3,4-oxadiazol-2-yl)pyrazin-2-yl]-3-(difluoromethyl)-N,N-dimethyl-benzamide] the Ki was ≤ 10 nM. Work on `CN(C)C(=O)c1ccc(-c2cnc(N)c(-c3nnc(-c4ccccc4-c4ccsc4)o3)n2)cc1` [IA-127, 4-[5-amino-6-[5-[2-(3-thienyl)phenyl]-1,3,4-oxadiazol-2-yl]pyrazin-2-yl]-N,N-dimethyl-benzamide] yielded a Ki of 10 to 100 nM. For `CC(C)S(=O)(=O)c1ccc(-c2cnc(N)c(-c3nnc(C(=O)O)o3)n2)cc1` [IA-128, 5-[3-amino-6-(4-isopropylsulfonylphenyl)pyrazin-2-yl]-1,3,4-oxadiazole-2-carboxylic acid], the Ki was ≤ 10 nM. Compound `C[C@H](Nc1nnc(-c2nc(-c3ccc(C(=O)N(C)C)cc3)cnc2N)o1)c1ccc(Cl)cc1` [IA-129, 4-[5-amino-6-[5-[[(1 S)-1-(4-chlorophenyl)ethyl]amino]-1,3,4-oxadiazol-2-yl]pyrazin-2-yl]-N,N-dimethyl-benzamide] has a Ki of 10 to 100 nM. With `CNCc1ccc(-c2nnc(-c3nc(-c4ccc(S(=O)(=O)C(C)C)cc4)cnc3N)o2)c(F)c1` [IA-130, 3-[5-[2-fluoro-4-(methylaminomethyl)phenyl]-1,3,4-oxadiazol-2-yl]-5-(4-isopropylsulfonylphenyl)pyrazin-2-amine] the Ki was ≤ 10 nM. Compound `CC(=O)OCc1ccc(-c2nnc(-c3nc(-c4ccc(C(=O)N(C)C)cc4)cnc3N)o2)cc1` [IA-131, [4-[5-[3-amino-6-[4-(dimethylcarbamoyl)phenyl]pyrazin-2-yl]-1,3,4-oxadiazol-2-yl]phenyl]methyl acetate] has a Ki of 10 to 100 nM. For `CC(C)S(=O)(=O)c1ccc(-c2cnc(N)c(-c3nnc(-c4ccccc4)o3)n2)c(C#N)c1` [IA-132, 2-[5-amino-6-(5-phenyl-1,3,4-oxadiazol-2-yl)pyrazin-2-yl]-5-isopropylsulfonyl-benzonitrile], the Ki was ≤ 10 nM. In the case of `CC(C)S(=O)(=O)c1ccc(-c2cnc(N)c(-c3nnc(C(=O)N4CCC(N)C4)o3)n2)cc1` (stereo not shown) [IA-133, [5-[3-amino-6-(4-isopropylsulfonylphenyl)pyrazin-2-yl]-1,3,4-oxadiazol-2-yl]-(3-aminopyrrolidin-1-yl)methanone], the Ki is reported as 100 to 5000 nM. In the case of `Nc1ncc(-c2ccccc2-c2ccccc2)nc1-c1nnc(-c2ccccc2)o1` [IA-134, 3-(5-phenyl-1,3,4-oxadiazol-2-yl)-5-(2-phenylphenyl)pyrazin-2-amine], the Ki is reported as 100 to 5000 nM. `CN(C)C(=O)c1ccc(-c2cnc(N)c(-c3nnc(-c4cccn4C)o3)n2)cc1` [IA-135, 4-[5-amino-6-[5-(1-methylpyrrol-2-yl)-1,3,4-oxadiazol-2-yl]pyrazin-2-yl]-N,N-dimethyl-benzamide] was tested, and the Ki was ≤ 10 nM. Work on `CC(C)[S+]([O-])c1ccccc1-c1cnc(N)c(-c2nnc(-c3ccccc3)o2)n1` (stereo not shown) [IA-136, 5-(2-(isopropylsulfinyl)phenyl)-3-(5-phenyl-1,3,4-oxadiazol-2-yl)pyrazin-2-amine] yielded a Ki of 10 to 100 nM. Work on `Nc1ncc(-c2ccccc2CCO)nc1-c1nnc(-c2ccccc2)o1` [IA-137, 2-[2-[5-amino-6-(5-phenyl-1,3,4-oxadiazol-2-yl)pyrazin-2-yl]phenyl]ethanol] yielded a Ki of 10 to 100 nM. For `CC(C)S(=O)(=O)c1ccc(-c2cnc(N)c(-c3nnc(N4CCC(CN)CC4)o3)n2)cc1` [IA-138, 3-[5-[4-(aminomethyl)-1-piperidyl]-1,3,4-oxadiazol-2-yl]-5-(4-isopropylsulfonylphenyl)pyrazin-2-amine], the Ki was 10 to 100 nM. In the case of `CNCc1ccc(-c2nnc(-c3nc(-c4ccc(S(=O)(=O)C(C)C)cc4)cnc3N)o2)s1` [IA-140, 5-(4-isopropylsulfonylphenyl)-3-[5-[5-(methylaminomethyl)-2-thienyl]-1,3,4-oxadiazol-2-yl]pyrazin-2-amine], the Ki is reported as ≤ 10 nM. In the case of `Nc1ncc(-c2ccncc2)nc1-c1nnc(-c2cccs2)o1` [IA-141, 5-(4-pyridyl)-3-[5-(2-thienyl)-1,3,4-oxadiazol-2-yl]pyrazin-2-amine], the Ki is reported as ≤ 10 nM.
